# Measured values published in patent publication US20140322251A1, “Peptides for Progressive Treating Multi-Focal Leukoencephalopathy and Related Conditions” (priority 2013, published 2014).
# Entries after “also recorded” stand apart in the source; their conditions may differ.
# How the values were obtained:
# [1] = tested on: HIV gp120 neurotoxicity; details: cited from earlier work; for EC50: read-out: EC50 (pM), antagonism of HIV gp120 neurotoxicity
# [2] = tested on: chemokine receptors; details: two D-substitutions in peptide T; cited from earlier work
# [3] = tested on: HIV (92HT596; R5/X4 isolate) entry via CXCR4, MAGI-CXC4 cells; details: peptide 1 nM, 48 hrs, mean and s.e.m of triplicate cultures; cited from earlier work
# [4] = tested on: HIV (92HT596; R5/X4 isolate) entry via CCR5, MAGI-CCR5 cells; details: peptide 1 nM, 48 hrs, mean and s.e.m of triplicate cultures; cited from earlier work
# [5] = tested on: neuropathic pain and inflammation; details: animals; cited from earlier work
# [6] = tested on: CCR5/CCR2 chemokine receptor system, CCL2 chemotaxis of human monocytes; test: CCL2 (MCP-1) mediated human monocyte chemotaxis (FIG. 1); format: cell-based; details: FIG. 1, triplicate determinations
# Excerpt: FIG. 1 illustrates that all-D-pentapeptide analogs of Peptide T inhibit CCL2 mediated human monocyte chemotaxis.
# In order to overcome this limitation we hereby disclose an unexpected method of preserving potency. […] B. Pert, J. D. Rone, R. Nixon, M. Vance, B. Sandler, M. D. Lumpkin, D. J. Dieter, and M. R. Ruff. 1999. Peptide T blocks GP120/CCR5 chemokine receptor-mediated chemotaxis. Clin Immunol.
# The FIG. 1 assay measured the peptide's ability to block CCL2 (MCP-1) chemotaxis.
Substance,EC50 [1],BFU (% Control) MAGI-CXC4 [3],other results
TTNdYT [reference compound],–,–,"EC50 (pM), antagonism of HIV gp120 neurotoxicity [1]: inactive; activity / biopotency (gp120 neurotoxicity) [1]: loss of all activity; also recorded: completely loses activity"
"(D-A1, D-T8)-peptide T-NH2",–,–,"loss of potency versus peptide T [2]: over 100,000 fold"
TTNYT,10 pM,45 +/− 7 % Control,BFU (% Control) MAGI-CCR5 [4]: 23 +/− 4 % Control
STNYT,3 pM,–,–
NTSYG,10 pM,60 +/− 8| % Control,–
TENYT [reference compound],–,–,"EC50 (pM), antagonism of HIV gp120 neurotoxicity [1]: inactive"
ETWYS,13 pM,65 +/− 5 % Control,BFU (% Control) MAGI-CCR5 [4]: 21 +/− 7 % Control
SSTYR,1 pM,–,–
TTSFT [reference compound],100000 pM,–,–
TTSYT,10 pM,35 +/− 7 % Control,BFU (% Control) MAGI-CCR5 [4]: 23 +/− 5 % Control
(all-D)-TTNYT,–,–,oral efficacy [5]: prevent and reverse neuropathic pain and block inflammation; block of CCL2 (MCP-1) chemotaxis / CCR5/CCR2 chemokine receptor system [6]: blocked
TDNYT [reference compound],3000 pM,–,–
